# From US20090298707A1, “SPARSE MATRIX SYSTEM AND METHOD FOR IDENTIFICATION OF SPECIFIC LIGANDS OR TARGETS” (priority 2008, published 2009)
# Key:
# [1] = per amino acid; cited from earlier work
# [2] = Confocal laser scanning microscopy of labeled peptides on tooth sections; type: binding; conditions: sectioned human tooth, CLSM
# Source text: The fluorescein-labeled peptides in the initial pilot library were pooled and screened by Confocal Laser Scanning Microscopy as follows. The quadrants of the library were collected into four pools of 9 peptides each. Peptides were screened by exposing the pooled, 5(6)-carboxyfluorescein-labeled peptides to sections taken from human teeth (extracted during normal clinical practice), followed by visualization of the samples by Confocal Laser Scanning Microscopy (CLSM).
# [3] = system: immobilized S. aureus cells; assay: Fluorescence microscopy binding of labeled peptides to immobilized bacteria, S. aureus; set-up: species or system Staphylococcus aureus; conditions: for Binding to S. aureus (fluorescent staining): 25 μM fluorescein-labeled peptide, 10 minutes, immobilized cells; for Binding to immobilized S. aureus relative to peptides of the original pilot library: refined libraries, fluorescence images
# Protocol: Peptide samples were prepared at a concentration of 25 μM for screening against a variety of organisms by exposing immobilized bacteria to labeled peptides. For bacterial cell binding assays, cells were grown overnight, washed, and immobilized in a polylysine-coated 96-well plate. Fluorescein-labeled peptide samples were applied to immobilized bacteria, incubated for 10 minutes and washed extensively to remove unbound peptide. Samples were visualized by fluorescence microscopy. For each peptide, both brightfield and fluorescence images were collected, and camera and microscope settings were not altered between images. The locations of cells and background regions were determined using the brightfield images; those regions were then selected in the fluorescence images for quantitation of pixel values for determination of relative fluorescence intensities (represented as bacterial fluorescence/background fluorescence) using the GNU Image Manipulation Program (The GIMP, see, e.g., www.gimp.org).
# The following bacterial species and strains were used: Lactobacillus casei (strain), Escherichia coli (W3110), Enterococcus faecium (strain), Streptococcus mutans (UA140), Streptococcus mitis (ATCC 903), Streptococcus gordonii (NY101), Pseudomonas aeruginosa(strain K), Klebsiella pneumoniae (KAY2026), Myxococcus xanthus (Strains DK1622, wildtype, and difA, exopolysaccharide deficient^21), Micrococcus luteus (strain MS2, a community isolate), Staphylococcus epidermidis (strain), and Staphylococcus aureus(strains, and AM1, a methicillin/oxacillin-resistant community isolate).
# For isolation of community-acquired S. aureus and M. luteus strains (strains MS2 and AM1), swabs were collected from the nostrils of several volunteers and streaked on Brain-Heart Infusion (BHI) agar and incubated at 37° C. overnight. Yellow colonies were isolated and typed (Microbial ID, Inc., Newark, Del.). Antibiotic resistance was assayed by plating on BHI in the presence of various antibiotics. Commercially available antibiotic susceptibility test disks were used to assay for oxacillin resistance (BD Biosciences), according to the manufacturer's instructions. Due to the difficulty of obtaining methicillin, oxacillin resistance was used as a proxy for methicillin resistance in isolated strains.^22
# The peptides comprising these two refined libraries were synthesized, labeled, and screened against immobilized S. aureus cells exactly as for the original pilot library.
# To examine the specificities of the peptides identified in this experiment, a diverse panel of various strains of bacteria was assembled, consisting of Lactobacillus casei, Escherichia coli, Enterococcus faecalis, Streptococcus mutans, Streptococcus mitis, Streptococcus gordonii, Pseudomonas aeruginosa, Klebsiella pneumoniae, Micrococcus luteus (strain MS2), Staphylococcus epidermidis, and two strains of Staphylococcus aureus: a methicillin/oxacillin-sensitive community isolate and our methicillin/oxacillin-resistant community isolate of (strain AM1). Peptides 3C and 4D from the original pilot library were screened for binding against these bacteria by fluorescence microscopy, and images were analyzed as before.
# S. aureus AM1 = assay: Pulldown binding assay, Langmuir isotherm fit, S. aureus; set-up: species or system Staphylococcus aureus; conditions: for Langmuir Affinity (Ka): association constant from Langmuir isotherm fit, fluorescein-labeled peptide 0-100 μM; for Monolayer Concentration (N): maximum surface concentration from Langmuir fit
# Source text: (§1) To investigate whether the changes in the observed level of binding were due to changes in the affinities or avidities of the refined peptides for cell surfaces, binding curves were generated for selected peptides and fit to the Langmuir isotherm (where possible), the simplest model describing binding to surfaces (peptides showing either complex or nonspecific binding isotherms were excluded from this analysis).
# (§2) Measurements were taken of the absorbance of the labeled peptide at 488 nm (the peak absorbance of the fluorescein label) before and after exposure to the cells. The amount of peptide bound was calculated by comparing the ratio of the final (Af) and initial (Ai) absorbances to the initial concentration (C0)[Cbound=C0(1−(Af/Ai))]. Bacterial surface area per sample was calculated using a stage micrometer to determine the average cell diameter for each species (1.0+/−0.1 μm for S. aureus AM1, 2.7+/−0.1 μm for M. luteus MS2), treating individual cells as discrete spheres. Average cell concentration per unit OD600 was calculated using a hemocytometer.
# (§3) Plots were then generated of the amount of peptide bound per m^2 of bacterial surface area vs. the concentration of unbound peptide at equilibrium. Where possible, the resulting isotherms were fit to the Langmuir isotherm (P/A=(KaNCeq)/(1+KaCeq), where P/A represents the molar amount of peptide bound per unit of bacterial surface area, Ka is the association constant of the peptide with the bacterial surface (L/Mol), N is the maximum surface concentration (mol/m^2), and Ceq is the molar concentration of unbound peptide at equilibrium) (Calis et al. (1995) Pharm Res 12(7): 1072-1076). Data plots and curvefits were obtained using Kaleidagraph (Synergy Software).
# M. luteus MS2 = assay: Pulldown binding assay, Langmuir isotherm fit, M. luteus; set-up: species or system Micrococcus luteus; conditions: for Langmuir Affinity (Ka): association constant from Langmuir isotherm fit; for Monolayer Concentration (N): maximum surface concentration from Langmuir fit
# Source text: as §1, §2, §3
compound,measurement,setting,value
C[C@H](N)C(=O)O [Ala],"Hydrophobicity (Fauchere and Pliska, 1983)",[1],0.31
N=C(N)NCCC[C@H](N)C(=O)O [Arg],"Hydrophobicity (Fauchere and Pliska, 1983)",[1],−1.01
NC(=O)C[C@H](N)C(=O)O [Asn],"Hydrophobicity (Fauchere and Pliska, 1983)",[1],−0.6
N[C@@H](CC(=O)O)C(=O)O [Asp],"Hydrophobicity (Fauchere and Pliska, 1983)",[1],−0.77
NC(=O)CC[C@H](N)C(=O)O [Gln],"Hydrophobicity (Fauchere and Pliska, 1983)",[1],−0.22
N[C@@H](CCC(=O)O)C(=O)O [Glu],"Hydrophobicity (Fauchere and Pliska, 1983)",[1],−0.64
NCC(=O)O [Gly],"Hydrophobicity (Fauchere and Pliska, 1983)",[1],0
N[C@@H](Cc1c[nH]cn1)C(=O)O [His],"Hydrophobicity (Fauchere and Pliska, 1983)",[1],0.13
CC[C@H](C)[C@H](N)C(=O)O [Ile],"Hydrophobicity (Fauchere and Pliska, 1983)",[1],1.8
CC(C)C[C@H](N)C(=O)O [Leu],"Hydrophobicity (Fauchere and Pliska, 1983)",[1],1.7
NCCCC[C@H](N)C(=O)O [Lys],"Hydrophobicity (Fauchere and Pliska, 1983)",[1],−0.99
CSCC[C@H](N)C(=O)O [Met],"Hydrophobicity (Fauchere and Pliska, 1983)",[1],1.23
N[C@@H](Cc1ccccc1)C(=O)O [Phe],"Hydrophobicity (Fauchere and Pliska, 1983)",[1],1.79
O=C(O)[C@@H]1CCCN1 [Pro],"Hydrophobicity (Fauchere and Pliska, 1983)",[1],0.72
C[C@@H](O)[C@H](N)C(=O)O [Thr],"Hydrophobicity (Fauchere and Pliska, 1983)",[1],0.26
N[C@@H](Cc1c[nH]c2ccccc12)C(=O)O [Trp],"Hydrophobicity (Fauchere and Pliska, 1983)",[1],2.25
N[C@@H](Cc1ccc(O)cc1)C(=O)O [Tyr],"Hydrophobicity (Fauchere and Pliska, 1983)",[1],0.96
CC(C)[C@H](N)C(=O)O [Val],"Hydrophobicity (Fauchere and Pliska, 1983)",[1],1.22
AMKDAMERM (synthetic peptide with tissue-specific binding to tooth enamel and enamel-proximal region of dentino-enamel junction) [Pilot Library 4F],Binding to dentin,[2],no obvious binding
same,Binding to tooth enamel and enamel side of the dentin-enamel junction,[2],clear binding
"In-plane refinement 3A: in-plane refined library peptide, SEQ ID NO:48 (LIERILQNL; synthetic in-plane refinement library peptide A3)",Binding to S. aureus (fluorescent staining),[3],binding was seen only to the methicillin/oxacilin-resistant strain of S. aureus
same,Binding to immobilized S. aureus relative to peptides of the original pilot library,[3],enhanced binding
same,Affinity relative to initial hits / parent peptide of the pilot library,S. aureus AM1; in words,increased affinity
same,Langmuir Affinity (Ka),M. luteus MS2,8 ± 3 M^−1 × 10000
same,Nmax relative to peptides from the parent library,M. luteus MS2; in words,sharp reduction
same,Monolayer Concentration (N),M. luteus MS2,0.0047 ± 0.006 Mol/m^2 × 0.0001
"In-plane refinement B2: in-plane refined library peptide, SEQ ID NO:51 (IVSQVIQNL; synthetic in-plane refinement library peptide B2)",Binding to immobilized S. aureus relative to peptides of the original pilot library,[3],enhanced binding
"In-plane refinement B4: in-plane refined library peptide, SEQ ID NO:53 (IVKDVIERL; synthetic in-plane refinement library peptide B4)",Binding to immobilized S. aureus relative to peptides of the original pilot library,[3],enhanced binding
"In-plane refinement C1: in-plane refined library peptide, SEQ ID NO:54 (LVSYVLTQV; synthetic in-plane refinement library peptide C1)",Binding to immobilized S. aureus relative to peptides of the original pilot library,[3],enhanced binding
"In-plane refinement C2: in-plane refined library peptide, SEQ ID NO:55 (LVSQVLQNV; synthetic in-plane refinement library peptide C2)",Binding to immobilized S. aureus relative to peptides of the original pilot library,[3],enhanced binding
"In-plane refinement C4: in-plane refined library peptide, SEQ ID NO:57 (LVKDVLERV; synthetic in-plane refinement library peptide C4)",Binding to immobilized S. aureus relative to peptides of the original pilot library,[3],enhanced binding
"Orthogonal refinement 2A: orthogonal refined library peptide, SEQ ID NO:63 (IVVILSQQN; synthetic orthogonal refinement library peptide A2)",Langmuir Affinity (Ka),S. aureus AM1,13 ± 4 M^−1 × 10000
same,Affinity relative to initial hits / parent peptide of the pilot library,S. aureus AM1; in words,comparable affinity
same,Nmax relative to pilot library hits,S. aureus AM1; in words,significant increase
same,Monolayer Concentration (N),S. aureus AM1,0.14 ± 0.01 Mol/m^2 × 0.0001
same,Langmuir Affinity (Ka),M. luteus MS2,1.6 ± 0.7 M^−1 × 10000
same,KA relative to peptides from the parent library,M. luteus MS2; in words,no significant changes
same,Nmax relative to peptides from the parent library,M. luteus MS2; in words,no significant changes
same,Monolayer Concentration (N),M. luteus MS2,0.5 ± 0.2 Mol/m^2 × 0.0001
"Orthogonal refinement 2B: orthogonal refined library peptide, SEQ ID NO:67 (IVVSQQILN; synthetic orthogonal refinement library peptide B2)",Langmuir Affinity (Ka),M. luteus MS2,0.4 ± 0.3 M^−1 × 10000
same,Monolayer Concentration (N),M. luteus MS2,0.5 ± 0.3 Mol/m^2 × 0.0001
"Orthogonal refinement 2C: orthogonal refined library peptide, SEQ ID NO:71 (IVSQVIQNL; synthetic orthogonal refinement library peptide C2)",Langmuir Affinity (Ka),S. aureus AM1,1.1 ± 0.3 M^−1 × 10000
same,Monolayer Concentration (N),S. aureus AM1,7 ± 1 Mol/m^2 × 0.0001
same,Langmuir Affinity (Ka),M. luteus MS2,1.4 ± 0.4 M^−1 × 10000
same,Monolayer Concentration (N),M. luteus MS2,0.12 ± 0.03 Mol/m^2 × 0.0001
"Pilot Library 3D: pilot library 9-mer, SEQ ID NO:29; became D1 of the in-plane matrix (SEQ ID NO:58) (VASYVATQV; synthetic pilot library peptide D3)",Binding to S. aureus (fluorescent staining),[3],some of the brightest unique staining
same,Langmuir Affinity (Ka),S. aureus AM1,6 ± 1 M^−1 × 10000
same,Monolayer Concentration (N),S. aureus AM1,0.18 ± 0.2 Mol/m^2 × 0.0001
same,Langmuir Affinity (Ka),M. luteus MS2,10 ± 7 M^−1 × 10000
same,Monolayer Concentration (N),M. luteus MS2,0.021 ± 0.004 Mol/m^2 × 0.0001
"Pilot Library 4C: pilot library 9-mer, SEQ ID NO:24; became A4 of the in-plane matrix (SEQ ID NO:49) (LIKDILERL; synthetic pilot library peptide C4)",Binding to S. aureus (fluorescent staining),[3],some of the brightest unique staining
same,Langmuir Affinity (Ka),S. aureus AM1,5 ± 1 M^−1 × 10000
same,Monolayer Concentration (N),S. aureus AM1,0.23 ± 0.2 Mol/m^2 × 0.0001
same,Langmuir Affinity (Ka),M. luteus MS2,1 ± 0.6 M^−1 × 10000
same,Monolayer Concentration (N),M. luteus MS2,0.10 ± 0.04 Mol/m^2 × 0.0001
"Pilot Library E4: pilot library 9-mer, SEQ ID NO:36 (AMKDAMERM; synthetic pilot library peptide E4)",Binding to dentin,[2],No significant staining
same,Binding to tooth enamel and enamel side of the dentin-enamel junction,[2],clear fluorescent staining
